Reference: patent publication US7902354B2, “Lapachone compounds and methods of use thereof” (ArQule, Inc., priority 2006, dated 2011)
Structures can show the parent of a compound that is named as a salt.

Legend:
[1] = system: A549 human lung carcinoma cells; experiment: MTS cell viability assay, A549 human lung carcinoma cells; assay type: cell-based; conditions: A549, 4 h compound incubation, MTS, read-out: IC50 Values, Cancerous Cells, Lung A549
[2] = system: K-562 human leukemia cells; experiment: MTS cell viability assay, K-562 human leukemia cells; assay type: cell-based; conditions: K562, K-562, 4 h compound incubation, MTS, read-out: IC50 Values, Cancerous Cells, Leukemia K-562
[3] = system: DLD-1 human colon carcinoma cells; experiment: MTS cell viability assay, DLD-1 human colon carcinoma cells; assay type: cell-based; conditions: DLD-1, 4 h compound incubation, MTS, read-out: IC50 Values, Cancerous Cells, Colon DLD-1
[4] = system: NCM-460 normal colon epithelial cells; experiment: MTS cell viability assay, NCM-460 normal colon epithelial cells; assay type: cell-based; conditions: for IC50: Homo sapiens, NCM460, NCM-460, 4 h compound incubation, MTS, read-out: IC50 Values, Normal Cells, Colon NCM-460; for Fold Selectivity (NCM-460/DLD1): ratio of IC50 NCM-460 / DLD1
[5] = system: PACA-2 human pancreatic carcinoma cells; experiment: MTS cell viability assay, PACA-2 human pancreatic carcinoma cells; assay type: cell-based; conditions: PACA-2, 4 h compound incubation, MTS, read-out: IC50 Values, Cancerous Cells, Pancreas PACA-2
[6] = system: DU-145 human prostate carcinoma cells; experiment: MTS cell viability assay, DU-145 human prostate carcinoma cells; assay type: cell-based; conditions: DU-145, 4 h compound incubation, MTS, read-out: IC50 Values, Cancerous Cells, Prostate DU-145

Row | SMILES | melting point [°C] | IC50 [1] [µM] | IC50 [2] [µM] | IC50 [3] [µM] | IC50 [5] [µM] | IC50 [6] [µM] | IC50 [4] [µM] | Fold Selectivity (NCM-460/DLD1) [4]
1 | CC(O)(Cc1ccccc1)CN1CCC2(CC1)CSC1=C(O2)c2ccccc2C(=O)C1=O (stereo not shown) | 186 to 187 |  |  |  |  |  |  | 
2 | CC(C)(C)c1ccc(OC[C@@H](O)CN2CCCC3(CSC4=C(O3)c3ccccc3C(=O)C4=O)C2)cc1 (stereo partly shown) | 90 to 92 |  |  |  |  |  |  | 
3 | O=C1C(=O)c2ccc(-c3ccccc3)cc2C2=C1SCC1(CCN(C[C@@H](O)COc3ccc(Cl)cc3)CC1)O2 | 111 to 112 |  |  |  |  |  |  | 
4 | O=C1C(=O)c2ccccc2C2=C1SCC1(CCN(C[C@H](O)COc3ccc(C(=O)OCc4ccccc4)cc3)CC1)O2 | 83 to 84 |  |  |  |  |  |  | 
5 | O=C1C(=O)c2ccccc2C2=C1SCC1(CCN(C(=O)NS(=O)(=O)c3ccc(F)cc3)CC1)O2 | 173 to 180 |  |  |  |  |  |  | 
6 | O=C1C(=O)c2ccccc2C2=C1SCC1(CCN(C(=O)NS(=O)(=O)c3ccccc3)CC1)O2 | 155 to 165 |  |  |  |  |  |  | 
7 | CC(C)(C)OC(=O)N1CCC2(CC1)CSC1=C(O2)c2cc(-c3ccc(C(F)(F)F)cc3)ccc2C(=O)C1=O | 238 to 240 |  |  |  |  |  |  | 
8 | CC(C)(C)OC(=O)N1CCC2(CC1)CSC1=C(O2)c2cc(-c3ccccc3C(F)(F)F)ccc2C(=O)C1=O | 223 to 225 |  |  |  |  |  |  | 
9 | O=C1C(=O)c2ccccc2C2=C1SCC1(CCN(C(=O)Cc3ccc(Cl)cc3)CC1)O2 | 120 to 125 |  |  |  |  |  |  | 
10 | O=C1C(=O)c2ccccc2C2=C1SCC1(CCN(C(=O)/C=C/c3ccccc3Cl)CC1)O2 | 110 to 115 |  |  |  |  |  |  | 
11 | O=C1C(=O)c2ccc(-c3ccccc3)cc2C2=C1SCC1(CCN(C(=O)c3cccc(Cl)c3)CC1)O2 | 240 to 241 |  |  |  |  |  |  | 
12 | CC(C)(C)OC(=O)N1CCC(CC(=O)N2CCC3(CC2)CSC2=C(O3)c3ccccc3C(=O)C2=O)CC1 | 110 to 113 |  |  |  |  |  |  | 
13 | O=C1C(=O)c2ccccc2C2=C1SCC1(CCN(C(=O)c3cn4c5c(cccc35)CCC4)CC1)O2 | 265 to 267 |  |  |  |  |  |  | 
14 | O=C1C(=O)c2ccccc2C2=C1SCC1(CCC(NC(=O)c3cccc(C(F)(F)F)c3)CC1)O2 (stereo not shown) (as salt: hydrochloride) | 266 to 267 |  |  |  |  |  |  | 
15 | O=C1C(=O)c2ccccc2C2=C1SCC1(CCN(C(=O)CSc3ccccc3)CC1)O2 [Compound 48, 1′-[(phenylthio)acetyl]spiro[naphtho[1,2-b][1,4]oxathiine-2,4′-piperidine]-5,6-dione] |  | 11.8 | 1.5 | 1.55 | 2.37 | 4.12 | 5.7 | 3.7
16 | O=C1C(=O)c2ccccc2C2=C1SCC1(CCN(C(=O)c3ccccc3I)CC1)O2 [Compound 49, 1′-(2-iodobenzoyl)spiro[naphtho[1,2-b][1,4]oxathiine-2,4′-piperidine]-5,6-dione] |  | 5.58 | 1.8 | 2.87 | 2.39 | 4.11 | 7.72 | 2.7
17 | O=C1C(=O)c2ccccc2C2=C1SCC1(CCN(C(=O)C(Cl)c3ccccc3)CC1)O2 (stereo not shown) [Compound 50, 1′-[chloro(phenyl)acetyl]spiro[naphtho[1,2-b][1,4]oxathiine-2,4′-piperidine]-5,6-dione] |  | 5.41 | 1.44 | 1.54 | 1.42 | 3.55 | 7.14 | 4.6
18 | O=C1C(=O)c2ccccc2C2=C1SCC1(CCN(C(=O)c3cc4ccccc4s3)CC1)O2 [Compound 51, 1′-(1-benzothien-2-ylcarbonyl)spiro[naphtho[1,2-b][1,4]oxathiine-2,4′-piperidine]-5,6-dione] |  | > 100 | 10.3 | 11.6 | 4.28 | 5.52 | 33 | 2.8

The next lines start with results.

Row | melting point [°C] | IC50 [1] [µM] | IC50 [2] [µM] | IC50 [3] [µM] | IC50 [5] [µM] | IC50 [6] [µM] | SMILES | IC50 [4] [µM] | Fold Selectivity (NCM-460/DLD1) [4]
19 | 88 to 89 |  |  |  |  |  | COc1ccc2c(c1)C1=C(SCC3(CCN(C(=O)Oc4cccc(C(F)(F)F)c4)CC3)O1)C(=O)C2=O |  | 
20 | 109 to 111 |  |  |  |  |  | CCCC(C)N1CCC2(CC1)CSC1=C(O2)c2ccccc2C(=O)C1=O (stereo not shown) |  | 
21 | 150 to 152 |  |  |  |  |  | O=C1C(=O)c2ccc(Br)cc2C2=C1SCC1(CCN(C[C@H](O)COc3ccc(Cl)cc3)CC1)O2 |  | 
22 | 94 to 97 |  |  |  |  |  | CC(C)(C)c1ccc(OC[C@@H](O)CN2CCC3(CC2)CSC2=C(O3)c3cc(Cl)ccc3C(=O)C2=O)cc1 |  | 
23 | 188 to 190 |  |  |  |  |  | COc1ccc2c(c1)C(=O)C(=O)C1=C2OC2(CCN(C[C@H](O)COc3ccc(C(C)(C)C)cc3)CC2)CS1 |  | 
24 | 80 to 81 |  |  |  |  |  | COc1ccc2c(c1)C1=C(SCC3(CCN(C[C@H](O)COc4ccc(F)cc4)CC3)O1)C(=O)C2=O |  | 
25 | 77 to 79 |  |  |  |  |  | O=C1C(=O)c2ccc(F)cc2C2=C1SCC1(CCN(C[C@@H](O)Cc3ccccc3)CC1)O2 |  | 
26 | 183 to 187 |  |  |  |  |  | O=C1C(=O)c2ccccc2C2=C1SCC1(CCC(c3ccccc3)CC1)O2 (stereo not shown) |  | 
27 | 251 to 252 |  |  |  |  |  | O=C1C(=O)c2ccccc2C2=C1SCC1(CCC3(CC1)OCCO3)O2 |  | 
28 | > 300 |  |  |  |  |  | Cl.Cl.O=C1C(=O)c2ccc(N3CCOCC3)cc2C2=C1SCC1(CCNCC1)O2 |  | 
29 | 125 to 127 |  |  |  |  |  | O=C1C(=O)c2ccc(-c3ccccc3C(F)(F)F)cc2C2=C1SCC1(CCNCC1)O2 |  | 
30 | 215 to 218 |  |  |  |  |  | CN(C)S(=O)(=O)N1CCC2(CC1)CSC1=C(O2)c2ccccc2C(=O)C1=O |  | 
31 | 198 to 199 |  |  |  |  |  | O=C(NC1CCC2(CC1)CSC1=C(O2)c2ccccc2C(=O)C1=O)Oc1cccc(C(F)(F)F)c1 (stereo not shown) (as salt: hydrochloride) |  | 
32 |  | > 100 | 48 | 49.5 | 27.5 | 60.5 | COc1ccc2c(c1)C1=C(SCC3(CCNCC3)O1)C(=O)C2=O [Compound 20, 9-methoxyspiro[naphtho[1,2-b][1,4]oxathiine-2,4′-piperidine]-5,6-dione] | 61.7 | 1.2
33 |  | 7.69 | 1.87 | 1.45 | 1.52 | 3.86 | O=C1C(=O)c2ccccc2C2=C1SCC1(CCN(C(=O)c3ccco3)CC1)O2 [Compound 39, 1′-(2-furoyl)spiro[naphtho[1,2-b][1,4]oxathiine-2,4′-piperidine]-5,6-dione] | 6.35 | 4.4
34 |  | 15.5 | 3.92 | 4.09 | 8.39 | 14.4 | Cc1noc(C)c1C(=O)N1CCC2(CC1)CSC1=C(O2)c2ccccc2C(=O)C1=O [Compound 40, 1′-[(3,5-dimethylisoxazol-4-yl)carbonyl]spiro[naphtho[1,2-b][1,4]oxathiine-2,4′-piperidine]-5,6-dione] | 10.2 | 2.5
35 |  | 4.84 | 1.44 | 1.58 | 1.47 | 3.1 | Cc1cc(C(=O)N2CCC3(CC2)CSC2=C(O3)c3ccccc3C(=O)C2=O)c(C)o1 [Compound 41, 1′-(2,5-dimethyl-3-furoyl)spiro[naphtho[1,2-b][1,4]oxathiine-2,4′-piperidine]-5,6-dione] | 5.8 | 3.7
36 |  | 43 | 5.64 | 8.95 | 5.12 | 12.7 | Cc1cc(C(=O)N2CCC3(CC2)CSC2=C(O3)c3ccccc3C(=O)C2=O)n(C)n1 [Compound 42, 1′-[(1,3-dimethyl-1H-pyrazol-5-yl)carbonyl]spiro[naphtho[1,2-b][1,4]oxathiine-2,4′-piperidine]-5,6-dione] | 12.6 | 1.4
37 |  | 9.96 | 2.77 | 2.26 | 2.14 | 4.12 | O=C1C(=O)c2ccccc2C2=C1SCC1(CCN(C(=O)c3ccoc3)CC1)O2 [Compound 43, 1′-(3-furoyl)spiro[naphtho[1,2-b][1,4]oxathiine-2,4′-piperidine]-5,6-dione] | 9.44 | 4.2
38 |  | 19.7 | 3.95 | 4 | 4.49 | 4.3 | Cc1cc(C(=O)N2CCC3(CC2)CSC2=C(O3)c3ccccc3C(=O)C2=O)nn1C [Compound 45, 1′-[(1,5-dimethyl-1H-pyrazol-3-yl)carbonyl]spiro[naphtho[1,2-b][1,4]oxathiine-2,4′-piperidine]-5,6-dione] | 9.84 | 2.5
39 |  | > 100 | 9.61 | 5.26 | 4.24 | 5.03 | CN(C)c1cccc(C(=O)N2CCC3(CC2)CSC2=C(O3)c3ccccc3C(=O)C2=O)c1 [Compound 46, 1′-[3-(dimethylamino)benzoyl]spiro[naphtho[1,2-b][1,4]oxathiine-2,4′-piperidine]-5,6-dione] | 28.6 | 5.4
40 |  | 14.4 | 2.71 | 4.15 | 3.92 | 4.49 | COC(=O)C(=O)N1CCC2(CC1)CSC1=C(O2)c2ccccc2C(=O)C1=O [Compound 52, methyl (5,6-dioxo-5,6-dihydro-1′H-spiro[naphtho[1,2-b][1,4]oxathiine-2,4′-piperidine]-1′-yl)(oxo)acetate] | 10.1 | 2.4
